± gives the expanded uncertainty stated by the source.
Assays:
[1] = Molar enthalpy of transition or fusion
[2] = DTA

| Molar enthalpy of transition or fusion ([1]; Crystal) [kcal/mol] | Normal melting temperature ([2]; Crystal) [°C] | Molar enthalpy of transition or fusion ([1]; Crystal 1) [kcal/mol] | Molar enthalpy of transition or fusion ([1]; Crystal 2) [kcal/mol] | Triple point temperature ([2]; Crystal 1) [K] | Triple point temperature ([2]; Crystal 2) [K] | Structure (SMILES) |
| --- | --- | --- | --- | --- | --- | --- |
| 13.3 ± 1.43 | 813 ± 2 | – | – | – | – | [Cl][Ce]([Cl])[Cl] [cerium trichloride] |
| – | – | 4.85 ± 0.574 | 0.908 ± 0.191 | 918 ± 2 | 743 ± 2 | [Cl-].[Cs+] [cesium chloride] |
